Experimental findings from publication PMC12067128, “Macrocyclization: Enhancing Drug-like Properties of Discoidin Domain Receptor Kinase Inhibitors” (ACS Medicinal Chemistry Letters, 2025) are described below.

The nature of one data set: Kinetic solubility. The data set is classed as physicochemical. The settings on record: for solubility kinetic at 2 h: phosphate buffered saline, PBS pH 7.4, 2% DMSO, 2 h room temperature, assay range 5-200 µM, read-out: KS (kinetic solubility). As for the experimental part: Using a stock solution of test compound in 100% DMSO, duplicate dilutions were prepared at a nominal concentration of 200 µM in 0.1 M phosphate buffered saline (PBS) at pH 7.4, with a 2% final DMSO content. Test compound calibration standards were prepared at 200 µM and 10 µM in 100%
DMSO. The PBS and DMSO dilutions were equilibrated on a shaking platform at room temperature for two hours prior to filtration using a Multiscreen HTS solubility filter plate (Millipore). Filtrates were analysed by LC-UV-MS and the concentration of compound in PBS filtrate determined by comparing the UV absorbance peak with that of the two DMSO calibration standards. Mass spectrometry will be used to confirm the presence of the expected molecular ion in the UV peak measured. The effective range of the assay is 5 – 200 µM. […]

The next data set concerns the target T1, Pgp (Homo sapiens, UniProt P08183).
T1 construct: host or cells: Caco-2 cells
The data set can be described thus: Pgp substrate assessment from Caco-2 permeability with/without Pgp inhibitor. In kind it is in vitro ADME. As for the experimental part: Lucifer Yellow (LY) was added to the apical buffer in all wells to assess viability of the cell layer. As LY cannot freely permeate lipophilic barriers, a high degree of LY transport indicates poor integrity of the cell layer and wells with a LY Papp > 10 x 10-6 cm/s were rejected. Compound recovery from the wells was determined from MS responses (normalised to internal standard) in donor and acceptor chambers at the end of incubation compared to response in the donor chamber pre- […]
which may reduce the reliability of a result.
Caco-2 membrane permeability assay
Caco-2 cells (ECACC) were cultured in DMEM, 10% FBS, 1% NEAA, Hepes buffer 10 mM and in 50 U/mL penicillin and […] streptomycin. For transport studies, 200,000 cells/well were seeded on Millicell 24-well cell culture plates. After 24 hours of incubation at 37 °C and 5% CO2, the medium was changed with Enterocyte Differentiation Medium (Becton Dickinson), which allows Caco-2 cells to establish within three days a differentiated enterocyte monolayer. The permeability of the compounds across the cells’ monolayer was determined by measuring their transport in both directions: apical to basolateral (A → B) and basolateral to apical (B → A). For A → B directional transport, the donor working solution with test article 10 m M) was added to the apical (A) compartment and HBSS (pH 7.4) was added to the basolateral (B). […] The Papp expressed as nm/sec was calculated as follows: Papp (nm/sec) = (Vr/C0) x (1/A) x (Cr(t)/T) x 1000 000. […]
Vr is the volume of the solution in the receiving compartment (mL); C0 is initial test compound concentration in the donor compartment (expressed as area ratio); A is the membrane surface area (cm2); Cr (t) = measured concentration of the receiver well at time T120 (expressed as area ratio) and T is time of incubation (sec). Efflux ratio was also measured to understand if the compounds undergo active efflux: Efflux ratio = Papp [B > A] / Papp [A > B]. […]
(In general: Caco-2 monolayers are a common model of the intestinal barrier.)

Data set [1] is described as follows: Microsomes stability (clearance in human microsomes). In kind it is in vitro ADME. The settings on record: pH 7.4, 0.8 mg protein/mL, 1 mM NADPH, 37 °C, read-out: CLint h mic (clearance in human microsomes). As for the experimental part: values in Caco-2 assay were: <10 nm/s = low level; 10-50 nm/s = medium level; >50 nm/s = high […]
Test compounds were incubated, in duplicate, at the concentration of 1 μM with liver microsomes (0.8 mg protein/mL) in Dulbecco’s buffer (pH 7.4) at 37 °C in the presence of 1 mM NADPH. At different time points (0, 5, 10, 20, 30, and 60 min), 50 μL aliquots of the incubates were taken, added with 80 μL of ice-cold acetonitrile, and 20 μL of 1 μM warfarin in acetonitrile (injection check) to stop the reaction, and samples were centrifuged. The supernatants were analyzed by LC−MS/MS for unchanged compounds. Test compounds were incubated with liver microsomes in Dulbecco’s buffer in the absence of NADPH for 0 and 60 min, as control. Midazolam at the concentration of 1 μM, was incubated with microsomes as positive control for phase I activity of microsomes. Control samples were processed as test compound samples.

Data set [2] in a line: BRlogD chromatographic lipophilicity. The data set is classed as physicochemical. The settings on record: XBridge Shield RP18, pH 7.0, 60% acetonitrile.
Description: The original method was described in a previous paper.e Briefly, a HPLC Thermo Fisher Scientific Dionex Ultimate 3000 instrument equipped with a Low-Pressure Mixing Gradient Pump LPG-3400 SD, ACC-3000 autosampler with termostatable column compartment, a DAD-3000 RS Detector and Chromeleon Data System Version 7.2.10 was used. Deionized water and HPLC grade acetonitrile were used throughout. The mobile phases consisted of 20 mM ammonium acetate at pH 7.0 and acetonitrile 60% v/v. Samples were dissolved in a 1:1 mixture of buffer/acetonitrile in the concentration range of 50–100 ug/mL. A 10uL volume of each solution was injected at 30°C and flow rate was 1 mL/min. The dead time, t0, was determined by monitoring the baseline disturbance.
retention time (tR) was measured on a XBridgeTM Shield RP18 (Waters, 5cm x 4.6 mm, 5 µm particle size, 130Å pore size). Isocratic log k’ (capacity factor k’ = (tR - t0)/t0) values were measured. The relationship between log D and log k’60 has been determined previously and is reported below (Eq.
We termed this log D as BRlogD.
The nature of data set [3]: log kW IAM (immobilized artificial membrane chromatography). In kind it is physicochemical. The settings on record: lipophilicity descriptor, phospholipid interaction. An excerpt:
(§1) Lipophilicity has been obtained in four different systems. BRlogD and ChromlogD are chromatographic surrogates of log Doct and, despite showing different values, are linearly correlated (Figure S4). Log k′ 80 PLRP-S is a surrogate of log Dtol. Log kw ^IAM mimics the interaction between the compounds and the phospholipids of membranes. The combination of the experimental lipophilicity descriptors is essential to evaluate lipophilicity in different regions of the membrane bilayer. This complete lipophilicity profile may give an idea of the permeability potential of poorly soluble compounds for which standard permeability measurements are unreliable. […] This is supported by its low IC50 value in the cell-based assay.

A short description of data set [4]: log k'80 PLRP-S chromatographic descriptor. The data set is classed as physicochemical. The settings on record: surrogate of log Dtol.
Description: as §1

Data set [5] in a line: Δlog kW IAM polarity descriptor. In kind it is physicochemical. The following applies: polarity in aqueous medium. As for the experimental part:
(§2) Polarity is quantified by two descriptors: EPSA and Δlog kw ^IAM. The first is measured in an almost fully nonpolar environment, and the second describes polarity in an aqueous medium. […] This is also in line with the higher solubility of KIMCs over 1.

The next data set can be described thus: EPSA polarity descriptor. The data set is classed as physicochemical. The following applies: almost fully nonpolar environment; polarity in nonpolar environment. The procedure: as §2

In brackets after ≈: the same amount, converted by molar mass. Read-outs that look alike come from different tables or passages of the source.

T1 sequence (P08183 whole entry): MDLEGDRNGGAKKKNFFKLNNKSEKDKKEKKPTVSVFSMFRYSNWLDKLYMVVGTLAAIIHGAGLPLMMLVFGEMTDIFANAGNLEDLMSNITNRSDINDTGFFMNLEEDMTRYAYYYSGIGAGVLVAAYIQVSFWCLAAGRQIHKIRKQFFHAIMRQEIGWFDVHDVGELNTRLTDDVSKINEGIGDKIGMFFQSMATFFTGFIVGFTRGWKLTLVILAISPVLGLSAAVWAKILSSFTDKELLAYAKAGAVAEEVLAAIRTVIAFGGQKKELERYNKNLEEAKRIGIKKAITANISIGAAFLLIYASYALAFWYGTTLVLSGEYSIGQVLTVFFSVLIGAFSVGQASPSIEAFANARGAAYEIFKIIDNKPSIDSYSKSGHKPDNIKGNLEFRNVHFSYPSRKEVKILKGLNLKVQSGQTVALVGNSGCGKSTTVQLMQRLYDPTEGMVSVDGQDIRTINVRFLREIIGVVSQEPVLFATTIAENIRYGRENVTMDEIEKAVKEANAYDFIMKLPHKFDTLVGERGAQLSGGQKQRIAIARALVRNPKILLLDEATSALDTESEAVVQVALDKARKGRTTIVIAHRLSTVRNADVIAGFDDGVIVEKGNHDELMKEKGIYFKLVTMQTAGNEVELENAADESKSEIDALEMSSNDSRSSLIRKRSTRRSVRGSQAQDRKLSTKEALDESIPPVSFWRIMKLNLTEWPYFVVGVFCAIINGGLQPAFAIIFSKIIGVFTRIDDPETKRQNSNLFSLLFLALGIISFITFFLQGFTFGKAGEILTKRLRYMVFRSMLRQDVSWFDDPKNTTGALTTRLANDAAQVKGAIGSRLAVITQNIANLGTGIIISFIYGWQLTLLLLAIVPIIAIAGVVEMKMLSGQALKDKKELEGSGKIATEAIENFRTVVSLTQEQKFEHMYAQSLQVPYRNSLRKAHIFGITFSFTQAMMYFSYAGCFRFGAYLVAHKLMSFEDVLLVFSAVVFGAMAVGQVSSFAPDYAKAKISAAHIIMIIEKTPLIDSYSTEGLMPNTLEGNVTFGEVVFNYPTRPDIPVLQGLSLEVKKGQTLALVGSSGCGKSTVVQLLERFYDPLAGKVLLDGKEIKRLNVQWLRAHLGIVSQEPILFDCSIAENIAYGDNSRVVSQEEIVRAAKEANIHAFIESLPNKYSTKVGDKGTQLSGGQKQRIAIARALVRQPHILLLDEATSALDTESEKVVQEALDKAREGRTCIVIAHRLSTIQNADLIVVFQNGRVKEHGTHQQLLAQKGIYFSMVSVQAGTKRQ

What is called kinetic solubility is the concentration staying in solution when a stock, usually in DMSO, is diluted into the medium. As to `O=C1COc2ccc(cc2)Nc2ccnc(n2)Nc2cnn(c2)CCCN1` [Compound 6b], in the data set “Kinetic solubility”, the “kinetic solubility (in words)” value is listed as “highly soluble” and the solubility (kinetic) at 2 h came to 198 ± 3 µM (≈ 72.3 µg/mL). Further, the Pgp substrate entry on Pgp (Caco-2 model) is on record as “YES”. Besides, in data set [1] (liver microsomes), the microsomal CLint at 1 h, 1 µM was determined as 12.1 ± 0.1 µL/min/mg. In addition, the BRlogD in data set [2] was -0.03. Besides, the “log kW^IAM” value in data set [3] came out at 1.53. The “logk'80 PLRP-S” value in data set [4] is -0.85. Besides, the “Δlog kW^IAM” value in data set [5] stood at 2.58. In “EPSA polarity descriptor”, this compound registered an EPSA of 108 A^2.

For `Cn1cc2c3nc(ncc31)Nc1cnn(c1)CCCNC(=O)COc1ccc-2cc1` [Compound 5b], in the data set “Kinetic solubility”, the “kinetic solubility (in words)” value is “less soluble” and the solubility (kinetic) at 2 h was 16 ± 1 µM (≈ 6.46 µg/mL). For the same compound, the Pgp substrate result at Pgp (Caco-2 model) was “YES”. Also, the microsomal CLint at 1 h, 1 µM in data set [1] (liver microsomes) came out at 88.5 ± 9.6 µL/min/mg. Also, in data set [2], the BRlogD stood at 0.53. Further, the “log kW^IAM” value in data set [3] was determined as 1.87. The “logk'80 PLRP-S” value in data set [4] is listed as -0.68. In data set [5], the “Δlog kW^IAM” value worked out at 2.41. Also, the EPSA in “EPSA polarity descriptor” is 106 A^2.

With `Cn1cc2c3nc(ncc31)Nc1cnn(c1)CCCNCCOc1ccc-2cc1` [Compound 5a], in “Kinetic solubility”, the “kinetic solubility (in words)” value is reported as “less soluble” and the kinetic solubility at 2 h is 20 ± 3 µM (≈ 7.79 µg/mL). Besides, in data set [1] (microsomes), the microsomal CLint at 1 h, 1 µM was 80.5 ± 2.7 µL/min/mg. In data set [2], this compound returned a BRlogD of 0.64. The “log kW^IAM” value in data set [3] worked out at 2.33. The “logk'80 PLRP-S” value in data set [4] is -0.65. Further, the “Δlog kW^IAM” value in data set [5] worked out at 2.77. For the same compound, in “EPSA polarity descriptor”, the EPSA amounted to 125 A^2.

For `c1cc2nc(n1)Nc1cnn(c1)CCCNCCOc1ccc(cc1)N2` [Compound 6a], in the data set “Kinetic solubility”, the “kinetic solubility (in words)” value was “highly soluble” and the solubility (kinetic) at 2 h was 188 ± 18 µM (≈ 66.1 µg/mL). The Pgp substrate entry on Pgp (Caco-2) is recorded as “YES”. Besides, in data set [1] (microsomes), the microsomal CLint at 1 h, 1 µM was determined as 22.1 ± 1.4 µL/min/mg. This compound displayed a BRlogD in data set [2] of -0.29. The “log kW^IAM” value in data set [3] was 1.96. The “logk'80 PLRP-S” value in data set [4] is given as -0.93. Moreover, in data set [5], the “Δlog kW^IAM” value is given as 3.26. In the data set “EPSA polarity descriptor”, the EPSA is 127 A^2.
